Assay [1] concerns the target T1, human CYP19A1 (aromatase) (Homo sapiens, UniProt P11511).
T1 sequence (P11511 1-503): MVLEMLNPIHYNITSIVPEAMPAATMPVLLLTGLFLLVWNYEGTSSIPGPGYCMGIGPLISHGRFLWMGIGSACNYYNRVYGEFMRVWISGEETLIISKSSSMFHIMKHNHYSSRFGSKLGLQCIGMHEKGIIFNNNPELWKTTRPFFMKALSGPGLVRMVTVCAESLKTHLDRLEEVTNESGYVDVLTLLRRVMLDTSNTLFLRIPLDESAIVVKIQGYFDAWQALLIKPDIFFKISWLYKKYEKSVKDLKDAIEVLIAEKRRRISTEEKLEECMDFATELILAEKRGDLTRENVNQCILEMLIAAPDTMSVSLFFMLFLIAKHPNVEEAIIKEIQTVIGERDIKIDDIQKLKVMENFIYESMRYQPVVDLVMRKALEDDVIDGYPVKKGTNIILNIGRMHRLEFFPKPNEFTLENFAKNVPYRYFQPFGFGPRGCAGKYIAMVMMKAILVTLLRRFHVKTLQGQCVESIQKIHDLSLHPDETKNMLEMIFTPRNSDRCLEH
T1 sequence (P16435 2-677 partner): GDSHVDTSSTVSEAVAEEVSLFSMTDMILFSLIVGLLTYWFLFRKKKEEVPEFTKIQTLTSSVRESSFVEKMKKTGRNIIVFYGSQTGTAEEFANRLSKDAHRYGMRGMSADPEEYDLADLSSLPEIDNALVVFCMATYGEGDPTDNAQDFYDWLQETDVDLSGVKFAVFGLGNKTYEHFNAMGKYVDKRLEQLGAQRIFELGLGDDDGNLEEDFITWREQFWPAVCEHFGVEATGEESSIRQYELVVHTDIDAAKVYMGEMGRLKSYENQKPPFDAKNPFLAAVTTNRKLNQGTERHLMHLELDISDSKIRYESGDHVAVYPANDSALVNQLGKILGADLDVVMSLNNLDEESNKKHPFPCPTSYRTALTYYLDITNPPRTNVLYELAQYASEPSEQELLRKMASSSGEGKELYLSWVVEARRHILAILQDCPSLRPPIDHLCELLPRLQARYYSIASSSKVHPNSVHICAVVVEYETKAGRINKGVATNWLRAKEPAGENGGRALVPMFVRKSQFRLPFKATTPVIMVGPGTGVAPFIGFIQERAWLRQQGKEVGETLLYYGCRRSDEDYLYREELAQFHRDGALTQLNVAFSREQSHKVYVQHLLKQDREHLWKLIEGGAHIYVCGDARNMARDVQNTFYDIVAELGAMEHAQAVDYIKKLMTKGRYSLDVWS
Put plainly: cell-based. Details: Yeast expressing human CYP19A1/CPR converts testosterone; estradiol in supernatant read by yeast biosensor, flow cytometry. The settings on record: for inhibition at 1 µM: read-out: % inhibition (1 μM); for inhibition at 10 µM: read-out: % inhibition (10 μM). How it is done: A 14-h precultivation period ensured that the aromatase catalytic capacity remained consistent across all independent experiments and the inhibitor cannot act on P450 expression levels. The initial OD600 was diluted to 0.04, and then the yeast culture’s OD600 was measured and adjusted to 2.00 with fresh SDC medium. One mL of yeast solution (OD600 = 2.00) was poured into the wells of a 48-well deep-well cell culture plate (Axygen P-5 ML-48-C). Subsequently, 1 mL of SDC medium containing 120 nM testosterone and either 10 μM or 1 μM of the inhibitor was added to each well containing the yeast solution. The mixture was incubated at 30 °C and 240 rpm for 2 h. After incubation, 1.5 mL of the mixture from each well was transferred to 2 mL tubes and centrifuged at 16,000 rpm to pellet the yeast cells. Then, 1.2 mL of the supernatant was moved to 1.5 mL tubes and labeled according to the inhibitor concentration. For each sample, 1 mL of the supernatant was transferred to a different well of a 48-well deep-well plate. Next, 980 μL of SDC medium and 20 μL of the precultured byMM1984 biosensor cell solution (OD600 adjusted to 5.00 after 14 h of preculture) were added to each well. Finally, flow cytometry was performed as previously described. The entire assay was repeated in three independent experiments to calculate the mean values. […] Initially, these inhibitors were applied at a final concentration of 10 μM. […] In addition, 9a lacks a Cl atom and 9b lacks a keto group in comparison to 9. […] Several factors were considered to avoid assay artifacts.[46] The biosensor gene circuit used in this study is orthogonal to the yeast chassis,[47] ensuring no interference between the biosensor and the yeast host, thus preventing false positives.

For assay [2], the target named is T1, human CYP19A1 (aromatase). Put plainly: cell-based. Set-up: Whole-yeast human CYP19A1/CPR testosterone aromatization; estradiol quantified by yeast biosensor fluorescence, flow cytometry, per cent of control. The conditions noted are these: Saccharomyces cerevisiae byMM1712; 1 uM inhibitor, testosterone substrate; read-out: % of control remaining. How it is done:
Initially, these inhibitors were applied at a final concentration of 10 μM. […] In addition, 9a lacks a Cl atom and 9b lacks a keto group in comparison to 9. […] (a) Illustration of the enzymatic assay based on heterologous expression of human CYP19A1 used for testing candidate CYP19A1 inhibitors. […] Data are presented as mean ± SEM (n = 3).

Assay [3] addresses T1, human CYP19A1 (aromatase). Put plainly: aromatase inhibition in yeast expressing human CYP19A1 and CPR, estradiol biosensor (yEGFP, flow cytometry). It counts as cell-based.

Drawing on article PMC12004523, “Integrated Virtual Screening Approach Identifies New CYP19A1 Inhibitors” (Journal of Chemical Information and Modeling, 2025), this text covers inhibition, remaining activity and IC50 for twelve molecules.

Molecules are shown by their SMILES.

With `CC1(c2ccc(Cl)cc2Cl)OCC(Cn2cncn2)O1` (stereo not shown) [compound 8], in assay [1], the inhibition at 1 µM is 44.3% and the inhibition at 10 µM was 81.7%. Besides, in assay [2], the remaining activity at 1 µM is 57 ± 7%.
For `O=C(Cc1c(F)cccc1Cl)N1CCC(Cn2ccnc2)CC1` [compound 4], in assay [1], the inhibition at 10 µM turned out to be 22.8%.
Consider `O=C(NCc1ccc(-n2ccnc2)cc1)c1cc2ccccc2oc1=O` [9a], for which, in assay [3], the IC50 was 1040 ± 63 nM. In addition, in assay [1], the inhibition at 1 µM was 51.9% and the inhibition at 10 µM came to 87.4%. For the same molecule, the remaining activity at 1 µM in assay [2] is 50 ± 1%.
For the molecule `COc1ccc(-c2cn3cccnc3n2)cc1NC(=O)Nc1ccc(F)cc1` [compound 7], the inhibition at 10 µM in assay [1] is 25.6%.
On to `N#Cc1ccc(C(c2ccc(C#N)cc2)n2cncn2)cc1` [letrozole], for which the inhibition at 10 µM in assay [1] was determined as 80.4%.
In assay [3], `O=C(NCc1ccc(-n2ccnc2)cc1)C1=Cc2cc(Cl)ccc2OC1` [9b] showed an IC50 of 1250 ± 190 nM. In assay [1], the inhibition at 1 µM was found to be 43.8% and the inhibition at 10 µM was found to be 85%. Further, the remaining activity at 1 µM in assay [2] came to 58 ± 1%.
In assay [3], `CC1(c2ccc(Cl)cc2Cl)OCC(Cn2cncn2)O1` (stereo not shown) [compound 8, 8] showed an IC50 of 1130 ± 158 nM.
For the molecule `O=c1cc(Cn2ccnc2)c2cc(O)c(-c3ccccc3)cc2o1` [compound 10], the inhibition at 10 µM in assay [1] is 38.1%.
`CC(NC(=O)c1cc2cc(Cl)ccc2oc1=O)c1ccc(-n2ccnc2)cc1` (racemic) [compound 9, N-(1-(4-(1H-imidazol-1-yl)phenyl)ethyl)-6-chloro-2-oxo-2H-chromene-3-carboxamide] yielded an IC50 in assay [3] of 271 ± 51 nM. Besides, the remaining activity at 1 µM in assay [2] stood at 13 ± 2%.
With `CSc1ccc2nc(N3CC(Cn4ccnc4)C3)sc2c1` [compound 2], the inhibition at 10 µM in assay [1] was determined as 30.9%.
Same read-out and setting: then `O=C(Nc1cccc(-c2cn3cccnc3n2)c1)c1ccc(Cl)cc1Cl` [compound 1], with 25.9%.
On to `CC(NC(=O)c1cc2cc(Cl)ccc2oc1=O)c1ccc(-n2ccnc2)cc1` (stereo not shown) [compound 9], for which, in assay [1], the inhibition at 1 µM came to 89.7% and the inhibition at 10 µM was determined as 96.7%.
